Test system: P. Falciparum 3D7
Assay: SYBR Green I growth inhibition assay, 3D7 strain
Assay type: cell-based
Conditions: Plasmodium falciparum, 3D7, 72 h, read-out: P. Falciparum 3D7 IC50

Structure (SMILES): CCN(CC)CCCC(C)Nc1ccnc2cc(Cl)ccc12 (stereo not shown) [Chloroquine, chloroquine]
- IC50: 52 ± 12 nM

Source: PMC5443346 (Bioorganic & medicinal chemistry, 2017)
